Test results published in patent US20250281572A1, “COMPOSITIONS AND METHODS FOR TREATING AND PREVENTING METABOLIC DISORDERS” (The Johns Hopkins University, priority 2022, published 2025).
Blank lines part the entries; values can stand above or below the compound they belong to. No end group written: not given here.

Columns and labels:
[1] = test system: AMPKα1; assay: AMPK phosphorylation in cAMP-treated Hepa1-6 cells; format: cell-based; details: Hepa1-6 cells with cAMP (0.2 mM)
[2] = target: AMPKα1 (AMP-activated protein kinase catalytic subunit alpha 1), FLAG-tagged, wild type (UniProt Q13131)
Target sequence in this assay (Q13131 whole entry, looked up, tested part not stated): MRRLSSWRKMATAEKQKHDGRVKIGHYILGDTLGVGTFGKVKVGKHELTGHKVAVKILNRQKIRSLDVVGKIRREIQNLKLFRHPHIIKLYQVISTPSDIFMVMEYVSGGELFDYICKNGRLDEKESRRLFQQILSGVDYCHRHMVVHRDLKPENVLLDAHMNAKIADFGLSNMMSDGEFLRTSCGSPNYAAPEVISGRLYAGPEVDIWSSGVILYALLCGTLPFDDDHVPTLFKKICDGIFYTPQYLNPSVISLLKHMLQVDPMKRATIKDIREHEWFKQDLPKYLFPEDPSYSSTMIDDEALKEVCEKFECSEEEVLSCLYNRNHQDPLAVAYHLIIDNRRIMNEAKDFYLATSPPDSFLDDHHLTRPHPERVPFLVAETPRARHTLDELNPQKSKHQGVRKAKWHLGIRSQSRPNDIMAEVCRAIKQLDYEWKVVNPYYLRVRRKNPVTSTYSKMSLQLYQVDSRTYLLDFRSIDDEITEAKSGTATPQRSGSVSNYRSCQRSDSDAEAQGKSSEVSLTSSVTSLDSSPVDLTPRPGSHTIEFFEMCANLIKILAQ

[3] = test system: T1, peptide a1m (TPQRSGSISNYRSCQR)
T1 sequence: TPQRSGSISNYRSCQR

[4] = target: AMPKα1 (AMP-activated protein kinase catalytic subunit alpha 1), FLAG-tagged, wild type (UniProt Q13131); assay: cell-based or functional assay
Target sequence in this assay (Q13131 whole entry): as the sequence (Q13131 whole entry, looked up, tested part not stated) above

[5] = target: AMPKα1 phosphorylated at S496 (UniProt Q13131)
[6] = target: AMPKα2 phosphorylated at S491 (UniProt P54646)
[7] = target: AMPKα2 (AMP-activated protein kinase catalytic subunit alpha 2) (UniProt P54646)
[8] = test system: AMPKα1; assay: In vitro phosphorylation assay of AMPKα1 at S496 by PKA or AKT; format: biochemical; details: in vitro assays
Method: (§1) In vitro phosphorylation assays. Purified AMPKα1 protein was incubated with 1 μg of PKA catalytic subunit (Millipore) or 0.54 ug of AKT1 (abcam), 1× kinase buffer (Cell signaling) and 0.2 mM ATP at room temperature for the indicated time. To test the phosphorylation of PKA-mediated AMPK phosphorylation at S496/491 on a subunit phosphorylation at T172, AMPKα subunits were phosphorylated at S496/491 by PKA at 37° C. for 1 h, followed by the addition of 25 ng LKB1-STRAD-MO25 (Millipore), then incubated at room temperature for 30 min.

[9] = test system: AMPKα2; assay: In vitro phosphorylation assay of AMPKα2 at S491 by PKA; format: biochemical
Method: as §1

[10] = Viable MCF-7 breast cancer cells; format: cell-based; details: 500 μM; read-out: reduction of viable MCF-7 cancer cells
[11] = test system: human colon cancer Caco2 cells; assay: Growth of colon cancer Caco2 cells; format: cell-based; details: FIG. 25b
[12] = test system: primary hepatocytes; details: 10 μM, 16 h, versus control peptide TAT
Method: Primary hepatocytes prepared from elderly mice (78 weeks of age) were treated with 10 μM of control peptide TAT or Pa496m for 16 h.

[13] = test system: HFD-fed mice; assay: Intraperitoneal treatment of HFD-fed mice; format: in vivo, mouse; details: intraperitoneal 10 nMole/g/day for 5 days, then 15 nMole/g/day for another 5 days
[14] = test system: human primary hepatocytes

Chain of AMPKβ1, FLAG-tagged (Q9R078 2-270): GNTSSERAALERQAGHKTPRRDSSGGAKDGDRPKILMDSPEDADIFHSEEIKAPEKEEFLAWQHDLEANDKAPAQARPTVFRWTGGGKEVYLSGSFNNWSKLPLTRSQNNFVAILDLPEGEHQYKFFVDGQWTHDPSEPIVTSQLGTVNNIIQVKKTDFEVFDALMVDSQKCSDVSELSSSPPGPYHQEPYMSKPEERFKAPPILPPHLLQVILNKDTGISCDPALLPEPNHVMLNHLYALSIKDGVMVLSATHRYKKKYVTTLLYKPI
Chain of AMPKγ1, FLAG-tagged (O54950 whole entry): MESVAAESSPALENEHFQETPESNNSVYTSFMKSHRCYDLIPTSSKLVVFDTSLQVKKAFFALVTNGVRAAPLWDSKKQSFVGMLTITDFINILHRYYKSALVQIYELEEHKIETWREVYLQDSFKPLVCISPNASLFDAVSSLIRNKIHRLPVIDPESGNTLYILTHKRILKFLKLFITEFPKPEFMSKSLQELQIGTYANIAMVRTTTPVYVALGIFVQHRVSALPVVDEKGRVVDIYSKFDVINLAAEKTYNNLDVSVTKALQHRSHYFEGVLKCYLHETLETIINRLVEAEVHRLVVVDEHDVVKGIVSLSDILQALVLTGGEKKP
Chain of AMPKα1 phosphorylated at S496 (Q13131 whole entry, looked up): as the sequence (Q13131 whole entry, looked up, tested part not stated) above
Chain of AMPKα2 (AMP-activated protein kinase catalytic subunit alpha 2) (P54646 whole entry, looked up, tested part not stated): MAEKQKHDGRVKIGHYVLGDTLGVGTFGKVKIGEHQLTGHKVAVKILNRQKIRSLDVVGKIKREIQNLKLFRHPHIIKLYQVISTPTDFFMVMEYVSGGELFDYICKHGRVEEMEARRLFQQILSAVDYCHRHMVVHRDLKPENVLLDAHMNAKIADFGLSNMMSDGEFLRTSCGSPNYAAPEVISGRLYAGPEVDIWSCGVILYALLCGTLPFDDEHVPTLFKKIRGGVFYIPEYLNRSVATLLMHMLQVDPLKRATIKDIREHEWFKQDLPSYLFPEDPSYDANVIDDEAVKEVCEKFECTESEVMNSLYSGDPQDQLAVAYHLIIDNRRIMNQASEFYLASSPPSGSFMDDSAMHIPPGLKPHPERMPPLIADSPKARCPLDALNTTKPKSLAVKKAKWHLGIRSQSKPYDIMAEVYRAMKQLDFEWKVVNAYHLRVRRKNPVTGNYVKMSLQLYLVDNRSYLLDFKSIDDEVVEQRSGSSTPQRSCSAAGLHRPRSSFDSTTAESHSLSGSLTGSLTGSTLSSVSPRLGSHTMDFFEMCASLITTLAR
Chain of AMPKα2 phosphorylated at S491 (P54646 whole entry, looked up): as the sequence (P54646 whole entry, looked up, tested part not stated) above

Compound: O=S(=O)(NCCNC/C=C/c1ccc(Br)cc1)c1cccc2cnccc12 [Peptide H89]
phosphorylation of AMPKαT172 and MFF [1]: reversed the negative effect of cAMP

Compound: AKT1 (abcam)
in vitro phosphorylation of AMPKα1 at S496 [2]: PKA- or AKT-mediated phosphorylation of AMPKα1 at S496 in in vitro assays
in vitro phosphorylation of AMPKα1 at S496 by AKT [3]: this peptide could effectively antagonize PKA- or AKT-mediated phosphorylation of AMPKα1 at S496 in in vitro assays

AMPK enzymatic activity (% of enzymatic activity lost) [4]: 80
Compound: AMPKβ1, FLAG-tagged

AMPK enzymatic activity (% of enzymatic activity lost) [4]: 80
Compound: AMPKγ1, FLAG-tagged

Compound: LKB1-STRAD-MO25 (Millipore)
in vitro phosphorylation of AMPKα at T172 [5]: the phosphorylation at these sites decreased the phosphorylation of AMPKα at T172 by upstream kinase LKB1
in vitro phosphorylation of AMPKα at T172 [6]: the phosphorylation at these sites decreased the phosphorylation of AMPKα at T172 by upstream kinase LKB1

Compound: PKA catalytic subunit (Millipore)
in vitro phosphorylation of AMPKα1 at S496 [2]: PKA can directly phosphorylate AMPKα1 at S496
in vitro phosphorylation of AMPKα2 at S491 [7]: PKA can directly phosphorylate AMPKα1 at S496 (FIGS. 3a, b) and AMPKα2 at S491 (FIG. 3c)
in vitro phosphorylation of AMPKα1 at S496 by PKA [3]: this peptide could effectively antagonize PKA- or AKT-mediated phosphorylation of AMPKα1 at S496 in in vitro assays
in vitro phosphorylation of AMPKα2 at S491 by PKA [3]: this targeting-peptide a1m could antagonize the phosphorylation of AMPKα2 at S491 by PKA as well

Compound: TPQRSGSISNYRSCQR [a1m, corresponds to mouse AMPKα1 from 490-505 a.a]
PKA- or AKT-mediated phosphorylation of AMPKα1 at S496 [8]: effectively antagonize
phosphorylation of AMPKα2 at S491 by PKA [9]: could antagonize

growth of colon carcinoma Caco2 cells [11]: could inhibit
Compound: YGRKKRRQRRRTPQRSCSAAGLHR [Pa2-491]
cytotoxicity [10]: > 90%

Compound: YGRKKRRQRRRTPQRSGSISNYRSCQR [Pa496m]
cytotoxicity [10]: > 90%
fat content in hepatocytes [12]: significantly decreased

Compound: YGRKKRRQRRRTPQRSGSVSNYRSCQR [Pa496h]
cytotoxicity [10]: > 90%
injury to the liver [13]: without causing injury to the liver
growth of colon carcinoma Caco2 cells [11]: could inhibit
decrease of hepatocytes' viability [14]: 19.8%
viability of human primary hepatocytes ([14]; 100 μM): did not significantly affected
